Legend:
spinal cord slices [1] = experiment: Immunofluorescent staining of lysolecithin-demyelinated spinal cord slices; type: cell-based, Sprague-Dawley rats; conditions: spinal cord slices treated with 0.5 mg/ml lysolecithin for 17 hours, compared with the control; FIG. 1
Text: (§1) <1-2> Preparation of Spinal Cord Tissue Slices Sprague-Dawley rats at 16 days old were anesthetized and the spinal cord was extracted. The spinal cord was put into ice-cold HBSS (Hanks balanced salt solution). Thoracic and lumbar spinal cords were cult into 400 μm in thickness by using a tissue chopper (McIlwain tissue chopper, The Mickle Laboratory Engineering Co. LTD, England). Several spinal cord slices were loaded on 0.4 μm filter (Millicell-CM filters, Millipore, USA) placed on a 6 well plate. The spinal cord slices were cultured in 1 ml of 25% horse serum (Invitrogen, USA) containing 50% MEM (Invitrogen, USA) supplemented with Earl's salts, 25% HBSS (Invitrogen, USA), 20 mM HEPES (Sigma, USA) and 6 mg/ml of D-glucose (Duchefa, Netherlands). The culture conditions were 5% CO2, 37° C. and the medium was replaced with a fresh medium twice a week. <1-3> Demyelination by Lysolecithin
(§2) The spinal cord slices were cultured in vitro (DIV, days in vitro) for 7 days. After treating 0.5 mg/ml of lysolecithin, the slices were cultured at 37° C. for 17 hours to induce demyelination of axons (Birgbauer et al., J Neurosci Res, 78, 157-166, 2004). After inducing demyelination, the medium containing lysolecithin was replaced with 1 ml of fresh medium. […]

spinal cord slices [2] = experiment: Histological analysis of spinal cord tissue slices (Luxol fast blue, H&E); type: cell-based, Sprague-Dawley rats; conditions: spinal cord slices treated with 0.5 mg/ml lysolecithin for 17 hours, compared with the control; FIG. 1
Text: as §1, §2

lysolecithin
MBP expression (spinal cord slices [1]): decreased
demyelination (myelin, Luxol fast blue staining) (spinal cord slices [2]): serious demyelination was observed

Reference: patent US7947435B2, “Neuronal regeneration material screening method by ex vivo model” (Seoul National University Industry Foundation, priority 2007, dated 2011)
